Laboratory results taken from patent US20260355318A1, “MOLECULAR MACHINES FOR TREATMENT OF CANCER, FUNGAL INFECTIONS, OR BACTERIAL INFECTIONS” (priority 2022, published 2026).

Test system: C. albicans mitochondria and plasma membrane
Test: Colocalization analysis by confocal microscopy
Type: cell-based, Candida albicans
Conditions: no light
Method: Colocalization analysis of MMs was performed as previously described (Benhamou et al., 2018; Vida and Emr, 1995) with modifications. A single isolated colony was picked from 24-h SDAE plates, diluted in liquid YPD, and grown at 30 ° C for 24 h. Cells were then re-diluted in fresh YPD medium and grown statically in Ibidi u-dishes (Ibidi GmbH, Munich, Germany) for 24 h at 30 ° C The cells were washed, and then YPD medium containing 8 μM MM 1 and 10 nM MitoTracker™ Green (Thermo Fisher Scientific, MA, USA) was added. After a 30-min dark incubation at 30 ° C, the solution was replaced with fresh medium containing 40 nM FM™ 4-64 (Thermo Fisher Scientific, MA, USA). Cells were immediately imaged in a Nikon Al—RSI confocal system mounted on a Nikon Ti-E widefield fluorescence microscope (Nikon Corporation, NY, USA). Cells were imaged directly on the Ibidi imaging dish using a 60×water immersion objective (numerical aperture of 1.27, 0.17 mm working distance). Colocalization was calculated in the Fiji version of ImageJ using the Colocalization Threshold tool and the Coloc-2 plugin.

With `C[C@@H]1Cc2ccc3ccccc3c2/C1=C1\c2ccccc2Sc2cc(NCCN(C)C)ccc21` [MM 1, N^1N^1-dimethyl-N^2-(9-(2-methyl-2,3-dihydro-1H-cyclopenta[a]naphthalen-1-ylidene)-9H-thioxanthen-3-yl) ethane-1,2-diamine] the “areal colocalization with FM 4-64” value was 5.2% and the “areal colocalization with MitoTracker Green” value was 52.5%.
